Entries after “also recorded” stand apart in the source; their conditions may differ.

The values below come from patent publication US20110039762A1, “TARGETED ANTIMICROBIAL MOIETIES” (C3 JIAN, INC., priority 2009, published 2011).

Assay [1] concerns E. faecalis. The experiment in a line: Kill or inhibit growth/proliferation; morphology, biofilm and growth disruption (Tables 5, 6). Also: test concentration or dose not given here. The assay is classed as cell-based, Enterococcus faecalis. Also noted: key: A: Peptide aggregates; B: Less hyphal formation; Clumps; Diffuse clumps and small polyps; F: Diffuse growth; H: Thin; I: Growth inhibition; Microcolony formation; Rippled; Small polyps; Thick; W: Halo formation on top, microlonies on bottom.

In assay [2] the test system is MRSA. Described as above. Also noted: key: A: Peptide aggregates; B: Less hyphal formation; Clumps; Diffuse clumps and small polyps; F: Diffuse growth; H: Thin; I: Growth inhibition; Microcolony formation; Rippled; Small polyps; Thick; W: Halo formation on top, microlonies on bottom. The assay is classed as cell-based, Methicillin-resistant Staphylococcus aureus. Also: test concentration or dose not given here.
Assay [3] relates to S. epidermidis. The assay is described as above. Also noted: key: A: Peptide aggregates; B: Less hyphal formation; Clumps; Diffuse clumps and small polyps; F: Diffuse growth; H: Thin; I: Growth inhibition; Microcolony formation; Rippled; Small polyps; Thick; W: Halo formation on top, microlonies on bottom. The assay is classed as cell-based, Staphylococcus epidermidis.
Assay [4] has as its system S. pneumoniae. The description is as above. Further details: key: A: Peptide aggregates; B: Less hyphal formation; Clumps; Diffuse clumps and small polyps; F: Diffuse growth; H: Thin; I: Growth inhibition; Microcolony formation; Rippled; Small polyps; Thick; W: Halo formation on top, microlonies on bottom. It counts as cell-based, Streptococcus pneumoniae. Also: test concentration or dose not given here.
In assay [5] the test system is microorganisms (e.g., bacteria, yeasts, fungi). In words: Targeting peptide binding to target microorganisms (Table 3). Conditions: preferably 1x PBS; for Target(s) (microorganisms bound by the targeting peptide): peptide binding in aqueous buffers varied by peptide solubility.
Assay [6] concerns microorganisms. The experiment in a line: Peptides having multiple activities (targeting/binding, antimicrobial, growth or phenotype altering). The text has this:
In certain embodiments, peptides described herein can have multiple activities. Thus for example, a peptide can have both binding/targeting activity and antimicrobial activity. Such peptides can be used, e.g., in a chimeric construct, for any or all of these properties. Thus, for example, a peptide designated “B” in Table 8 can be used as a targeting peptide. If it is also designated G or M it can also be used for antimicrobial activity.
For Organism, effect (morphology, biofilm and growth disruption) in this document: test concentration or dose not given here.
For Organism, effect in this document: test concentration or dose not given here.

With “PF-447: peptide having multiple activities (chain 1 IDKSRNKDQFSHIFGLYNICSG; chain 2 IDKSRNKDQFSHIFGLYNICSG; Peptide with targeting and/or antimicrobial activity)”, the “Organism, effect” value in assay [1] is listed as “E. faecalis (C)”; in assay [2], “MRSA (C)”; in assay [3], “S. epidermidis (C)”; in assay [4], “S. pneumoniae (C)”. Further, the “Target(s)” value in assay [5] (microorganism(s) the targeting peptide binds, peptide binding conducted in aqueous buffers varied by peptide solubility) is listed as “S. epidermidis; also recorded: M. luteus; also recorded: E. coli; also recorded: S. pneumoniae”. Moreover, in assay [6], the Activities entry is listed as “G B”.

With “PF-667 (chain 1 PAHQRLRIDQRLVADRDMVQDYES; chain 2 PAHQRLRIDQRLVADRDMVQDYES; Peptide with targeting and/or antimicrobial activity)”, the “Organism, effect (morphology, biofilm and growth disruption)” value is listed as “E. faecalis (R)” in assay [1], “MRSA (R)” in assay [2], “S. epidermidis (R)” in assay [3] and “S. pneumoniae (R)” in assay [4]. Moreover, the “Target(s) (microorganisms bound by the targeting peptide)” value in assay [5] is “Mycobacteria spp”.

Turning to “PF-677 (chain 1 TCRGAGMH; chain 2 TCRGAGMH; Peptide with targeting and/or antimicrobial activity)”, the “Organism, effect (morphology, biofilm and growth disruption)” value in assay [1] is listed as “E. faecalis (R)”; in assay [2], “MRSA (D)”; in assay [3], “S. epidermidis (R)”; in assay [4], “S. pneumoniae (D)”. In addition, in assay [5], the “Target(s) (microorganisms bound by the targeting peptide)” value is recorded as “Mycobacteria spp”.

For the substance “PF-690 (chain 1 MIPLAGDPVSSHRTVEFGVLGTYLVSGGSL; chain 2 MIPLAGDPVSSHRTVEFGVLGTYLVSGGSL; Peptide with targeting and/or antimicrobial activity)”, the “Organism, effect (morphology, biofilm and growth disruption)” value in assay [1] was “E. faecalis (R)”; in assay [2], “MRSA (R)”; in assay [3], “S. epidermidis (R)”; in assay [4] it was “S. pneumoniae (M)”. Besides, the “Target(s) (microorganisms bound by the targeting peptide)” value in assay [5] is recorded as “Mycobacteria spp”.

Regarding “PF-407: peptide having multiple activities (KPKNKKEKTVISYEKLLSMY; Peptide with targeting and/or antimicrobial activity)”, the “Organism, effect” value in assay [1] is on record as “E. faecalis (R)”; in assay [2], “MRSA (C)”; in assay [3], “S. epidermidis (M)”; in assay [4], “S. pneumoniae (R)”. The Activities result in assay [6] is “G B”.

“PF-613: peptide having multiple activities (ADEFAKL; Peptide with targeting and/or antimicrobial activity)”: the “Organism, effect” value in assay [1] was “E. faecalis (A)”; in assay [2], “MRSA (C)”; in assay [3], “S. epidermidis (R)”. Further, in assay [5], the “Target(s) (microorganisms bound by the targeting peptide)” value is given as “C. jeikeium”. In addition, the Activities result in assay [6] was “G B”.

Take “PF-544: peptide having multiple activities (chain 1 FGEKQMRSWWKVHWFHP; chain 2 FGEKQMRSWWKVHWFHP; Peptide with targeting and/or antimicrobial activity)”: the “Organism, effect” value is listed as “E. faecalis (R)” in assay [1], “MRSA (D)” in assay [2], “S. epidermidis (D)” in assay [3] and “S. pneumoniae (M)” in assay [4]. For the same substance, the Activities result in assay [6] is given as “G B”.

Turning to “PF-616: peptide having multiple activities (IVFVVTKEKK; Peptide with targeting and/or antimicrobial activity)”, the figures for the “Organism, effect” value in assay [1] and in assay [3] were “E. faecalis (A)” and “S. epidermidis (R)”, respectively. In addition, the “Target(s) (microorganisms bound by the targeting peptide)” value in assay [5] is reported as “C. jeikeium”. In addition, the Activities result in assay [6] was “G B”.
